Laboratory results: US20260224547A1, “COMPOSITIONS COMPRISING ANATABINE AND USES THEREOF” (Philip Morris Products S.A., priority 2021, published 2026)

Test system: PMA-differentiated THP-1 cell lysates
Assay: DIA mass spectrometry proteomics of cell lysates
Assay type: cell-based, human
Details: 100, 200, 300, 400 μM for 24 hours; adjusted p-value<0.05
Protocol: To confirm the increased expression of target genes of NRF2 transcription factor at the protein level, proteins were profiled by untargeted mass spectrometry in PMA-differentiated THP-1 cell lysates after anatabine treatment (100, 200, 300, 400 μM) for 24 hours.
Samples were processed using PREOMICS IST KIT (PreOmics GmbH, Planegg/Martinsried, Germany) as described in the manufacturer's protocol. Briefly, 100 μl of PREOMICS LYSE BUFFER were added to the cells, samples were incubated at 90° C. for 10 min and sonified for 30 sec with a sonifier (Brandson, Danbury, Connecticut, USA) at 10% amplitude. Protein amount was determined using the PIERCE 660 NM PROTEIN ASSAY (Pierce Biotechnology, Rockford, USA) following the manufacturer's protocol. Samples were normalized to 0.5 μg/μl and 40 μg was further processed with PREOMICS IST KIT with a 3 h trypsin digestion. Peptides were purified on the cartridge, dried overnight on a vacuum concentrator (Martin Christ, Germany) and re-suspended in 50 μL of LC SOLUTION (Biognosys AG, Switzerland). 1 μL of iRT reference peptides (Biognosys AG, Switzerland) was added to 19 μL of processed sample. Samples were analysed with an EASY 1000 NANOLC (ThermoFisher Scientific) connected online to a Q-Exactive (ThermoFisher Scientific). […]

C1=CCC(c2cccnc2)NC1 (racemic) [anatabine, 1,2,3,6-Tetrahydro-2,3′-bipyridine]
intracellular protein products of NRF2 target genes HMOX1, GCLM, NQO1 and TXNRD1: significantly expressed
